Assay results taken from patent publication US6867320B2, “Substituted phenylalkanoic acid derivatives and use thereof” (Asahi Kasei Pharma Corporation, priority 2002, dated 2005).

Columns and labels:
Assay type in all cases: cell-based
[1] = test system: LTB4 production from IgE-stimulated RBL-2H3 cells; experiment: Suppressing action on LTB4 production from IgE-stimulated RBL-2H3 cells; settings: Rattus norvegicus, 10 min, IgE/DNP-BSA stimulated RBL-2H3 cells, read-out: LTB4 production suppression ratio
Text: (§1) 2. Suppressing Action on PGD2 and LTB4 Production from IgE-Stimulated RBL-2H3 Cells
(§2) Suppressing action on PGD2 and LTB4 production caused by IgE as an allergic stimulant was investigated by the following method. Cells of RBL-2H3, which is a rat mastocytoma cell line (purchased from ATCC), were suspended in DEMEM medium (GIBCO) containing 10% fetal bovine serum (BioFluid), inoculated to each well of 48-well culture plate at a density of 2×10^4 cells/well and cultured overnight. Then, IgE antiserum directed to dinitrophenylated BSA (henceforth DNP-BSA) was further added to each well, and the cells were cultured for 30 minutes. Then, the medium was changed to DEMEM medium containing 0.5% fetal bovine serum, a test compound was added with each well, and DNP-BSA was further added at a final concentration of 100 ng/ml as a stimulant. Ten minutes after the stimulant was added, the culture supernatant was collected, and the PGD2 concentration and LTB4 concentration in the culture supernatant were measured by using EIA kit (CAYMAN). By using a well which was not added with the stimulant as a negative control and a well which was added only with the stimulant as a positive control, suppressing ratios on mediator production were calculated from the production amounts of the mediators in the well added with the test compound using the following equation. PGD2 or LTB4 production suppression ratio=[1−(C−B)/(A−B)]×100 • A: PGD2 or LTB4 production amount of positive control • B: PGD2 or LTB4 production amount of negative control • C: PGD2 or LTB4 production amount in well added with test compound
(§3) Further, as control compounds for comparison, reference compound (1), 3-(2-cyclohexylmethyloxy-1,1′-biphenyl-5-yl)propionic acid described in WO99/19291, reference compounds (2) and (3), [2-(5,6,7,8-tetrahydro-5,5,8,8-tetramethyl-2-naphthalenyl)methyloxy-1,1′-biphenyl-5-yl]carboxylic acid [reference compound (2)] and 3-[3′-carboxy-2-(5,6,7,8-tetrahydro-5,5,8,8-tetramethyl-2naphthalenyl)methyloxy-1,1′-biphenyl-6-yl]propionic acid [reference compound (3)] described in U.S. Pat. No. 5,391,817 and Japanese Patent Unexamined Publication (Kokai) No. 7-22399, respectively, were used, and activities thereof were similarly measured.

[2] = test system: PGE2 production from IL-1β-stimulated MG-63 cells; experiment: Suppressing action on PGE2 production from IL-1β-stimulated MG-63 cells; settings: Homo sapiens, IL-1β 1 ng/ml, 18 hours, read-out: PGE2 production suppression ratio
How it was run: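 Human osteosarcoma MG-63 cells (2×10^4/well) switched to 0.5% FBS medium, treated with compound, then stimulated with IL-1β at 1 ng/ml final for 18 h. Supernatant PGE2 measured by EIA; suppression ratio calculated against stimulated and unstimulated wells.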

[3] = test system: PGD2 production from IgE-stimulated RBL-2H3 cells; experiment: Suppressing action on PGD2 production from IgE-stimulated RBL-2H3 cells; settings: Rattus norvegicus, 10 min, IgE/DNP-BSA stimulated RBL-2H3 cells, read-out: PGD2 production suppression ratio
Text: as §1, §2, §3

CN(C)c1cc(CCC(=O)O)cc(-c2ccc3c(cnn3C)c2)c1OC1Cc2ccccc2C1 [Compound 586, 3-[4-(indan-2-yloxy)-3-(N,N-dimethylamino)-5-(1-methyl-1H-indazol-5-yl)phenyl]propionic acid]
inhibition at 0.4 µM [1]: ≥ 50% | inhibition at 0.4 µM [2]: ≥ 50% | inhibition at 0.4 µM [3]: ≥ 50%

O=C(O)CCc1ccc(OCC2CCCC2)c(-c2ccc3cc(NC(=O)c4ccco4)ccc3c2)c1 [Compound 081, 3-(4-cyclopentylmethyloxy-3-{6-[(furan-2-carbonyl)amino]naphthalen-2-yl}phenyl)propionic acid]
inhibition at 0.4 µM [1]: ≥ 50% | inhibition at 0.4 µM [2]: ≥ 50% | inhibition at 0.4 µM [3]: ≥ 50%

CNc1ccc2cc(-c3cc(CCC(=O)O)ccc3OCC3CCCC3)ccc2c1 [Compound 016, 3-{4-cyclopentylmethyloxy-3-[6-(N-methylamino)naphthalen-2-yl]phenyl}propionic acid]
inhibition at 0.4 µM [1]: ≥ 50% | inhibition at 0.4 µM [2]: ≥ 50% | inhibition at 0.4 µM [3]: ≥ 50%

CC1(C)CCC(C)(C)c2cc(COc3cccc(CCC(=O)O)c3-c3cccc(C(=O)O)c3)ccc21 [reference compound (3), 3-[3′-carboxy-2-(5,6,7,8-tetrahydro-5,5,8,8-tetramethyl-2naphthalenyl)methyloxy-1,1′-biphenyl-6-yl]propionic acid, reference compound]
inhibition at 0.4 µM [1]: -6.3% | inhibition at 0.4 µM [3]: 2.1%

O=C(O)CCc1ccc(OCC2CCCCC2)c(-c2ccccc2)c1 [reference compound (1), 3-(2-cyclohexylmethyloxy-1,1′-biphenyl-5-yl)propionic acid, reference compound]
inhibition at 0.4 µM [1]: -5.9% | inhibition at 0.4 µM [3]: -12.9%

O=C(O)CCc1cc(F)c(OC2CCCC2)c(-c2ccc3[nH]ncc3c2)c1 [Compound 481, 3-[4-cyclopentyloxy-3-fluoro-5-(1H-indazol-5-yl)phenyl]propionic acid]
inhibition at 0.4 µM [1]: ≥ 50% | inhibition at 0.4 µM [2]: ≥ 50% | inhibition at 0.4 µM [3]: ≥ 50%

O=C(O)CCc1ccc(OCc2ccc(Cl)cc2Cl)c(-c2ccc3[nH]ccc3c2)c1 [Compound 162, 3-[4-(2,4-dichlorophenylmethyloxy)-3-(1H-indol-5-yl)phenyl]propionic acid]
inhibition at 0.4 µM [1]: ≥ 50% | inhibition at 0.4 µM [2]: ≥ 50% | inhibition at 0.4 µM [3]: ≥ 50%

Nc1cc(CCC(=O)O)cc(-c2ccc3[nH]ncc3c2)c1OC1Cc2ccccc2C1 [Compound 486, 3-[3-amino-4-(indan-2-yloxy)-5-(1H-indazol-5-yl)phenyl]propionic acid]
inhibition at 0.4 µM [1]: ≥ 50% | inhibition at 0.4 µM [2]: ≥ 50% | inhibition at 0.4 µM [3]: ≥ 50%

Nc1nc2ccc(-c3cc(CCC(=O)O)ccc3OCC3CCCC3)cc2s1 [Compound 287, 3-[3-(2-aminobenzothiazol-6-yl)-4-cyclopentylmethyloxyphenyl]propionic acid]
inhibition at 0.4 µM [1]: ≥ 50% | inhibition at 0.4 µM [2]: ≥ 50% | inhibition at 0.4 µM [3]: ≥ 50%

CC1(C)CCC(C)(C)c2cc(COc3ccc(C(=O)O)cc3-c3ccccc3)ccc21 [reference compound (2), [2-(5,6,7,8-tetrahydro-5,5,8,8-tetramethyl-2-naphthalenyl)methyloxy-1,1′-biphenyl-5-yl]carboxylic acid, reference compound]
inhibition at 0.4 µM [1]: -15.3% | inhibition at 0.4 µM [3]: -17.6%

CCn1ccc2cc(-c3cc(CCC(=O)O)ccc3OCc3ccccc3Cl)ccc21 [Compound 250, 3-[4-(2-chlorophenylmethyloxy)-3-(1-ethyl-1H-indol-5-yl)phenyl]propionic acid]
inhibition at 0.4 µM [1]: ≥ 50% | inhibition at 0.4 µM [2]: ≥ 50% | inhibition at 0.4 µM [3]: ≥ 50%

Cc1cc(CCC(=O)O)cc(-c2ccc3c(cnn3C)c2)c1OC1CCCC1 [Compound 572, 3-[4-cyclopentyloxy-3-methyl-5-(1-methyl-1H-indazol-5-yl)phenyl]propionic acid]
inhibition at 0.4 µM [1]: ≥ 50% | inhibition at 0.4 µM [2]: ≥ 50% | inhibition at 0.4 µM [3]: ≥ 50%

O=C(O)CCc1ccc(OCC2CCCC2)c(-c2ccc3cc(NCCO)ccc3c2)c1 [Compound 075, 3-{4-cyclopentylmethyloxy-3-[6-(2-hydroxyethylamino)naphthalen-2-yl]phenyl}propionic acid]
inhibition at 0.4 µM [1]: ≥ 50% | inhibition at 0.4 µM [2]: ≥ 50% | inhibition at 0.4 µM [3]: ≥ 50%

O=C(O)CCc1ccc(OC2CCCCC2)c(-c2ccc3ccccc3c2)c1 [Compound 045, 3-[4-cyclohexyloxy-3-(naphthalen-2-yl)phenyl]propionic acid]
inhibition at 0.4 µM [1]: ≥ 50% | inhibition at 0.4 µM [2]: ≥ 50% | inhibition at 0.4 µM [3]: ≥ 50%

Cn1ncc2cc(-c3cc(CCC(=O)O)cc(F)c3OC3CCCC3)ccc21 [Compound 483, 3-[4-cyclopentyloxy-3-fluoro-5-(1-methyl-1H-indazol-5-yl)phenyl]propionic acid]
inhibition at 0.4 µM [1]: ≥ 50% | inhibition at 0.4 µM [2]: ≥ 50% | inhibition at 0.4 µM [3]: ≥ 50%

CCn1ncc2cc(-c3cc(CCC(=O)O)cc(N)c3OC3Cc4ccccc4C3)ccc21 [Compound 489, 3-[3-amino-5-(1-ethyl-1H-indazol-5-yl)-4-(indan-2-yloxy)phenyl]propionic acid]
inhibition at 0.4 µM [1]: ≥ 50% | inhibition at 0.4 µM [2]: ≥ 50% | inhibition at 0.4 µM [3]: ≥ 50%

O=C(O)CCc1ccc(OCCc2cccc(Cl)c2)c(-c2ccc3[nH]ccc3c2)c1 [Compound 211, 3-{4-[2-(3-chlorophenyl)ethyloxy]-3-(1H-indol-5-yl)phenyl}propionic acid]
inhibition at 0.4 µM [1]: ≥ 50% | inhibition at 0.4 µM [2]: ≥ 50% | inhibition at 0.4 µM [3]: ≥ 50%

Cn1ncc2cc(-c3cc(CCC(=O)O)cc(O)c3OC3Cc4ccccc4C3)ccc21 [Compound 569, 3-[4-(indan-2-yloxy)-3-hydroxy-5-(1-methyl-1H-indazol-5-yl)phenyl]propionic acid]
inhibition at 0.4 µM [1]: ≥ 50% | inhibition at 0.4 µM [2]: ≥ 50% | inhibition at 0.4 µM [3]: ≥ 50%

O=C(O)CCc1ccc(OCc2cccc(F)c2)c(-c2ccc3ccccc3c2)c1 [Compound 035, 3-[4-(3-fluorophenylmethyloxy)-3-(naphthalen-2-yl)phenyl]propionic acid]
inhibition at 0.4 µM [1]: ≥ 50% | inhibition at 0.4 µM [3]: ≥ 50%
